In patent US12570645B2, “Uses of p53 x-ray co-crystal structures” (PMV Pharmaceuticals, Inc., priority 2020, dated 2026):

target: T1, p53 Y220C (Homo sapiens, UniProt P04637, P309S/R273H/Y220C); experiment: HTRF / TR-FRET in vitro DNA binding activity assay (SC150); format: biochemical; settings: concentration required to increase DNA binding activity of p53 Y220C by 50%; TABLE 10
T1 construct: made in house; host or cells: E. coli
Experimental: The ability of a compound of the invention to stabilize p53 Y220C and increase the DNA binding activity of p53 Y220C was measured by a homogeneous time-resolved fluorescence (HTRF) assay. Recombinant His-tagged p53 Y220C used in the HTRF assay was expressed in the bacterium E. coli. The recombinant protein was a truncation mutant containing only amino acids 94-312 of p53, which encompassed the DNA binding domain (DBD) of p53 (SEQ ID NO.: 1). The His-tagged p53 Y220C was tested for DNA binding ability with a consensus sequence of DNA (DNA duplex with a sequence of 5′-[…]-3′; SEQ ID NO.: 2). SEQ ID NO.: 2 was then conjugated with a biotin label and used in the activity assay.
The binding of the recombinant His-tagged p53 Y220C protein and the biotin-labeled consensus DNA was measured using fluorescence resonance energy transfer (FRET). For the FRET assay, the binding between the p53 mutant and the DNA sequence was measured by detecting the fluorescence of the interaction between an anti-His antibody conjugated to allophycocyanin (APC) and streptavidin conjugated to europium to detect the biotin-labeled DNA.
The test compounds were prepared as 4.5 mM stock solutions in dimethyl sulfoxide (DMSO). The compounds of the disclosure were used to test the stabilization of p53 Y220C and increase in DNA binding activity of p53 Y220C. The stock solutions were then serially diluted 3-fold in DMSO, and 1.2 μL of the diluted solutions was added to each well of a 384-well polypropylene black plate. 30 μL of a 181 nM solution of the recombinant His-tagged p53 Y220C protein and 12.1 nM of APC conjugated anti-His tag antibody in ice-cold Assay Buffer 1 (50 mM Tris-HCl, pH 7.4; 75 mM KCl; 0.75 mM DTT; and 0.2 mg/mL bovine serum albumin (BSA) was added to each well containing the test compounds.
As a background control, 30 μL of Assay Buffer 1 containing 12.1 nM of APC anti-His antibody was also added into a second set of serially-diluted compound plates. The test and control samples were spun at 1200 rpm for 1 minute and incubated at room temperature for 15 minutes. The samples were then further incubated at either 27° C. or 29° C. for 60 min. Five microliters of 311 nM biotin labeled consensus DNA (SEQ ID NO.: 2) and 13.03 nM europium-conjugated streptavidin in Assay Buffer 2 (50 mM Tris-HCl, pH 7.4; 75 mM KCl; and 0.2 mg/mL BSA) were added to each well for both the test and control plates. The plates were spun at 1200 rpm for 1 minute and incubated at room temperature for 20 minutes. The assay signals were monitored by reading excitation at 340 nm, and emission fluorescence at 615 nm and 665 nm on a plate reader.
Normalized time-resolved fluorescence resonance energy transfer (TR-FRET) assay signal (Rn) was calculated by the formula: Rn=[(A−Ba−CD)/(D−Bd)](Dc−Bd) where A was the fluorescence intensity of the sample at 665 nm; D was the fluorescence intensity of the sample at 615 nm; Ba and Bd were plate background readings at 665 nm and 615 nm, respectively; and Dc was the fluorescence intensity of 1.8 nM Eu-SA in the assay buffer at 615 nm.
The cross talk factor (C) was determined by the following formula: C═(Ac−Ba)/(DC−Bd) where Ac was the fluorescence intensity of 1.8 nM Eu-labeled anti-FLAG antibody in the assay buffer at 665 nm.
The percentage of activation of protein DNA binding in the presence of a compound of the invention compared to the absence of the compound was denoted by a SC150 value, which indicated the concentration of the compound required to increase the DNA binding activity by 50%. The SC150 values were calculated using either Prism™ or ActivityBase™.

SMILES | SC150 (μM)
COc1cc(S(C)(=O)=O)ccc1NCC#Cc1cc2c(N[C@H]3CC[C@H](N4CC5CC(C4)O5)CC3)cccc2n1CC(F)(F)F [Compound 10, 2-{3-[(4-methanesulfonyl-2-methoxyphenyl)amino]prop-1-yn-1-yl}-N-[(1r,4r)-4-{6-oxa-3-azabicyclo[3.1.1]heptan-3-yl}cyclohexyl]-1-(2,2,2-trifluoroethyl)-1H-indol-4-amine] | ′ (′ = 0 μM ≤ SC150 < 0.05 μM)
COc1cc(C(N)=O)ccc1NCC#Cc1cc2c(N[C@@H]3CCN(C)C[C@@H]3F)cccc2n1CC(F)(F)F [Molecule 1938] | ′ (′ = 0 μM ≤ SC150 < 0.05 μM)
CNC(=O)c1ccc(NCC#Cc2cc3c(NC4CCC(N5CC(S(C)(=O)=O)C5)CC4)cccc3n2CC(F)(F)F)c(OC)c1 (stereo not shown) [Molecule 1330] | ′ (′ = 0 μM ≤ SC150 < 0.05 μM)
COc1cc(S(C)(=O)=O)ccc1NCC#Cc1cc2c(N[C@@H]3CCN(C)C[C@@H]3F)cccc2n1CC(F)(F)F [Compound 13, N-[(3S,4R)-3-fluoro-1-methylpiperidin-4-yl]-2-{3-[(4-methanesulfonyl-2-methoxyphenyl)amino]prop-1-yn-1-yl}-1-(2,2,2-trifluoroethyl)-1H-indol-4-amine] | ′ (′ = 0 μM ≤ SC150 < 0.05 μM)
CN1CCC(Nc2cccc3c2cc(C#CCNc2ccc(S(C)(=O)=O)cc2O)n3CC(F)(F)F)CC1 [Molecule 1623] | ′ (′ = 0 μM ≤ SC150 < 0.05 μM)
COc1cc(C(N)=O)ccc1NCC#Cc1cc2c(NC3C[C@@H](C)O[C@@H](C)C3)cccc2n1CC(F)(F)F (stereo partly shown) [Molecule 2168] | ′′′ (′′′ = 0.1 μM ≤ SC150 < 0.2 μM)
COc1cc(S(N)(=O)=O)ccc1NCC#Cc1cc2c(NC3CCN(C[C@@H](O)CO)CC3)cccc2n1CC(F)(F)F [Molecule 1687] | ′ (′ = 0 μM ≤ SC150 < 0.05 μM)
COc1cc(C(N)=O)ccc1NCC#Cc1cc2c(N[C@H]3CCN(C)C[C@H]3F)cccc2n1CC(F)(F)F [Molecule 1939] | ′ (′ = 0 μM ≤ SC150 < 0.05 μM)
COc1cc(S(C)(=O)=O)ccc1NCC#Cc1cc2c(N(C)C)cccc2n1CC(F)(F)F [Molecule 702] | ′′′ (′′′ = 0.1 μM ≤ SC150 < 0.2 μM)
CNC(=O)c1ccc(NCC#Cc2cc3c(N[C@H]4CCN(C)C[C@H]4F)cccc3n2CC(F)(F)F)c(OC)c1 [Molecule 1921] | ′ (′ = 0 μM ≤ SC150 < 0.05 μM)
CNC(=O)c1ccc(NCC#Cc2cc3c(N[C@@H]4CCN(C)C[C@@H]4F)cccc3n2CC(F)(F)F)c(OC)c1 [Compound 14, 4-{[3-(4-{[(3S,4R)-3-fluoro-1-methylpiperidin-4-yl]amino}-1-(2,2,2-trifluoroethyl)-1H-indol-2-yl)prop-2-yn-1-yl]amino}-3-methoxy-N-methylbenzamide] | ′ (′ = 0 μM ≤ SC150 < 0.05 μM)
COc1cc(S(=O)(=O)Nc2ccon2)ccc1NCC#Cc1cc2c(NC3CCC(N(C)C)CC3)cccc2n1CC(F)(F)F (stereo not shown) [Molecule 1188] | ′ (′ = 0 μM ≤ SC150 < 0.05 μM)
COCC(O)CN1CCC(Nc2cccc3c2cc(C#CCNc2ccc(S(C)(=O)=O)cc2OC)n3CC(F)(F)F)CC1 (stereo not shown) [Compound 7, 1-{4-[(2-{3-[(4-methanesulfonyl-2-methoxyphenyl)amino]prop-1-yn-1-yl}-1-(2,2,2-trifluoroethyl)-1H-indol-4-yl)amino]piperidin-1-yl}-3-methoxypropan-2-ol] | ′ (′ = 0 μM ≤ SC150 < 0.05 μM)
COc1cc(S(C)(=O)=O)ccc1NCC#Cc1cc2c(NC(=O)NC3CCN(CCO)CC3)cccc2n1CC(F)(F)F [Molecule 1155] | ′′′′ (′′′′ = 0.2 μM ≤ SC150 < 1 μM)

same assay, conditions: concentration required to increase DNA binding activity of p53 Y220C by 50%; TABLE 11

SMILES | SC150 (μM)
CN1CC[C@H](Nc2cccc3c2cc(-c2ccc(CNC(=O)c4ccccc4)cc2)n3CC(F)(F)F)[C@H](F)C1 [Molecule 2239] | + (+ = 0 μM ≤ SC150 < 2 μM)
CN1CC[C@H](Nc2cccc3c2cc(-c2ccc(CNC(=O)C4CC4)cc2)n3CC(F)(F)F)[C@H](F)C1 [Molecule 2240] | + (+ = 0 μM ≤ SC150 < 2 μM)

same assay, conditions: concentration required to increase DNA binding activity of p53 Y220C by 50%; TABLE 12

SMILES | SC150 (μM)
Cc1ccc(-c2cc3c(NC4CCS(=O)(=O)CC4)cccc3n2CC(F)(F)F)c(F)c1 [Molecule 2205] | ** (** = 0.1 μM ≤ SC150 < 0.5 μM)
N#Cc1cccc(-c2cc3c(NC4CCS(=O)(=O)CC4)cccc3n2CC(F)(F)F)c1 [Molecule 2204] | ** (** = 0.1 μM ≤ SC150 < 0.5 μM)
O=S1(=O)CCC(Nc2cccc3c2cc(-c2cccc(Cl)c2)n3CC(F)(F)F)CC1 [Molecule 2206] | * (* = 0 μM ≤ SC150 < 0.1 μM)
